Literature values, collected in publication PMC8891573, “Dysregulation of the Nitric Oxide/Dimethylarginine Pathway in Hypoxic Pulmonary Vasoconstriction—Molecular Mechanisms and Clinical Significance” (Frontiers in Medicine, 2022).
Read-outs that look alike come from different tables or passages of the source.

Tests used:
CAT-2 = system: CAT-2; design: method as in PMID 28684763, PMID 9701046
eNOS = conditions: for effect on NOS activity: competition with L-arginine for the NOS catalytic site
mice = system: mice; design: method as in PMID 17068215; conditions: acute HX exposure, HC or SC mice, i.p. injection of ADMA
[1] = design: method as in PMID 9799202
mouse lungs = system: mouse lungs; design: method as in PMID 19648472; conditions: oral L-arginine treatment
isolated aortic rings = system: isolated aortic rings; design: method as in PMID 2870025
ETA and ETB receptors = system: ETA and ETB receptors; design: method as in PMID 8847282, PMID 8873714, PMID 20415698; conditions: animal models and clinical studies
[2] = inhaled NO, small trials

In the case of `CN(C)C(N)=NCCC[C@H](N)C(=O)O` [ADMA, asymmetric dimethylarginine], the “inhibition of CAT-2, cellular uptake transporter for L-arginine” value (CAT-2) is listed as “may inhibit”, the “inhibition of eNOS” value (eNOS) is listed as “competitive inhibitor” and the “effect on NOS activity” value (eNOS) is listed as “competitively inhibits NOS activity”. The HX survival time (mice) was “ADMA increased HX survival time in HC and in SC mice; the effect was mediated by regulation of eNOS activity”.

In the case of `N=C(N)NCCC[C@H](N)C(=O)O` [L-arginine], the “reversal of impaired NO generation and endothelial dysfunction due to elevated ADMA” value [1] is listed as “reversible” and the “PRMT2, DDAH2, ADMA and nitrotyrosine changes in ovalbumin-treated mice” value (mouse lungs) is listed as “PRMT2 ↑ and DDAH2 ↓ in ovalbumin-treated mice, along with ↑ ADMA and ↑ nitrotyrosine; Reversal with oral L-arginine treatment”.

In the case of `CN=C(NC)NCCC[C@H](N)C(=O)O` [SDMA, symmetric dimethylarginine], the “inhibition of CAT-2, cellular uptake transporter for L-arginine” value (CAT-2) is given as “may inhibit” and the “effect on NOS activity” value (eNOS) is given as “unable to directly interfere with NOS activity”.

In the case of `CC(=O)OCC[N+](C)(C)C` [acetylcholine], the “vascular response of aortic rings” value (isolated aortic rings; Wistar rats) is listed as “endothelium-dependent vasodilation” and the “vascular response of aortic rings” value (isolated aortic rings; spontaneously hypertensive rats (SHR)) is listed as “vasoconstriction”.

For `COc1ccccc1Oc1c(NS(=O)(=O)c2ccc(C(C)(C)C)cc2)nc(-c2ncccn2)nc1OCCO` [bosentan], the “effect on HPV” value (ETA and ETB receptors) is listed as “variable effects”.

For Nitric oxide [NO], the “effects on COVID-19-associated hypoxaemia and outcome” value [2] is listed as “inconclusive”.
